Laboratory results: paper PMC4923153, “Protection of Primary Dopaminergic Midbrain Neurons by GPR139 Agonists Supports Different Mechanisms of MPP^+ and Rotenone Toxicity” (Frontiers in Cellular Neuroscience, 2016)
“And” between values parts separate entries of the source, which are not always exact repeats. Equal entries are not always repeated. Where two headings read alike, the source gives them in different places.

Key:
[1] = test system: differentiated SH-SY5Y neurons; conditions: 24 h incubation; ref Giordano et al., 2012; cited from earlier work
[2] = test system: SH-SY5Y cells; parameters: method as in Song et al., 2012; conditions: ref Song et al., 2012; cited from earlier work
[3] = test system: primary DA midbrain neurons; format: cell-based, mice; conditions: 24 h
Procedure: Experiments were conducted in accordance with the ethical guidelines of H. Lundbeck A/S and the Danish legislation of animal use for scientific procedures. Cell culture was basically performed as described (Nagel et al., [2008]), with few modifications. Briefly, the mesencephalon floor was dissected from embryonic day (E) 13 mice, tissue pieces collected in HBBS, transferred to 0.1% trypsin, 0.05% DNAse (Sigma-Aldrich DN25–1G) and incubated at 37°C in a humidified atmosphere with 5% CO2 for 20 min; washed in DNAse, homogenized and centrifuged at 200× g, resuspended in medium (DMEM (Gibco 41965–039), 10% FCS, 1% P/S (Gibco, 15140–122), l.5% HEPES (Gibco, 15630–056), 1% Sodium Pyruvate (Gibco, 11360–039)) and plated on poly-L-lysine coated 96-well dishes. The medium was switched to neurobasal medium after 90 min (neurobasal (Gibco 21103–049) with 1% P/S, 2% B27 (Gibco, 17504–044), 1.25% 0.5 mM L-glutamine (Gibco, 25030–024)). […] Plates were stored at 4°C until tyrosine-hydroxylase-positive (TH-positive) neurons were counted using a Thermo Scientific Cellomics® ArrayScan® VTI HCS Reader. […] To ensure that only healthy primary cultures were assessed, we furthermore excluded experiments with total cell counts below Mean minus standard deviation (SD) of the summarized experiments. […]

[4] = test system: primary DA midbrain neurons; test: Protection of primary DA midbrain neurons against MPP+ toxicity (TH-positive neuron count); format: cell-based, mice
Procedure: Experiments were conducted in accordance with the ethical guidelines of H. Lundbeck A/S and the Danish legislation of animal use for scientific procedures. Cell culture was basically performed as described (Nagel et al., [2008]), with few modifications. Briefly, the mesencephalon floor was dissected from embryonic day (E) 13 mice, tissue pieces collected in HBBS, transferred to 0.1% trypsin, 0.05% DNAse (Sigma-Aldrich DN25–1G) and incubated at 37°C in a humidified atmosphere with 5% CO2 for 20 min; washed in DNAse, homogenized and centrifuged at 200× g, resuspended in medium (DMEM (Gibco 41965–039), 10% FCS, 1% P/S (Gibco, 15140–122), l.5% HEPES (Gibco, 15630–056), 1% Sodium Pyruvate (Gibco, 11360–039)) and plated on poly-L-lysine coated 96-well dishes. The medium was switched to neurobasal medium after 90 min (neurobasal (Gibco 21103–049) with 1% P/S, 2% B27 (Gibco, 17504–044), 1.25% 0.5 mM L-glutamine (Gibco, 25030–024)). After 6 days in vitro (DIV), cultures were treated with 1 μM of three different GPR139 agonists and in some experiments, concomitantly, with 10 μM of the antagonist for1 h, before exposing them to 0–1 μM MPP^+, 0–50 μM 6-OHDA or 0–100 nM rotenone for 24 h. For the MPP^+ treated cultures, it was also tested whether the effect of the GPR139 agonists could be blocked by concomitantly applying 10 μM GPR139 antagonist (IC50 3 μM). Subsequently, cells were fixed in 4% PFA/PBS for 10 min, washed with PBS, incubated in 0.5% BSA/0.1% Triton-X/5% porcine serum for 20 min, and incubated for 24 h in rabbit anti-tyrosine hydroxylase antibodies (1:1000 in PBS, Millipore AB152); washed 2 × 5 min in PBS. Secondary antibodies (Alexa 488 rabbit) were applied 1:200 in PBS with 0.2 μg/ml Hoechst dye for 1 h and washed 2 × 5 min in PBS. One drop of DAKO fluorescent mounting medium were applied into each well. Plates were stored at 4°C until tyrosine-hydroxylase-positive (TH-positive) neurons were counted using a Thermo Scientific Cellomics® ArrayScan® VTI HCS Reader. Results were normalized against control condition and compared. Experiments were only included in the evaluation if at least 30% cell death was induced at the highest toxin concentration compared to non-treated control wells. To ensure that only healthy primary cultures were assessed, we furthermore excluded experiments with total cell counts below Mean minus standard deviation (SD) of the summarized experiments. […]
To examine whether GPR139 agonists protect against toxin-induced DA cell death, we first treated cultured DA midbrain neurons with the GPR139 agonists and MPP^+ . Subsequently, we determined survival of TH-positive neurons.
Figure 8 Three different GPR139 surrogate agonists protect primary dopaminergic (DA) midbrain neurons against 1-methyl-4-phenyl-pyridinium ionMPP^+ toxicity. […] TH-positive neurons were counted and normalized to numbers under control conditions. […] Each data point is calculated from 12 (0 μM and 1 μM MPP^+ concentrations); 4 (0.125 μM); 7 (0.25 μM); or 8 (0.5 μM) independent measurements.
Primary midbrain cultures were pretreated with the indicated amount of GPR139 agonist compound 3 and with either vehicle ( [drawing 5] ), or 1 μM MPP^+ ( [drawing 6] ); or MPP^+ with 10 μM of the antagonist compound 4 ( [drawing 7] ), or with the antagonist compound 4 alone ( [drawing 8] ). The number of TH-positive neurons was determined 24 h later and normalized to control conditions. […]

[5] = test system: primary DA midbrain neurons; test: Protection of primary DA midbrain neurons against 6-OHDA toxicity (TH-positive neuron count); format: cell-based, mice; conditions: 1 μM agonist 1 h, 0-50 μM 6-OHDA 24 h
Procedure: (§1) Experiments were conducted in accordance with the ethical guidelines of H. Lundbeck A/S and the Danish legislation of animal use for scientific procedures. Cell culture was basically performed as described (Nagel et al., [2008]), with few modifications. […] Plates were stored at 4°C until tyrosine-hydroxylase-positive (TH-positive) neurons were counted using a Thermo Scientific Cellomics® ArrayScan® VTI HCS Reader. […] To ensure that only healthy primary cultures were assessed, we furthermore excluded experiments with total cell counts below Mean minus standard deviation (SD) of the summarized experiments. […]
Neuronal midbrain cultures were pretreated with 1 μM of either one of the agonists compound 1 ( [drawing 9] ), compound 2 ( [drawing 10] ), or compound 3 ( [drawing 11] ), or vehicle ( [drawing 12] ) for 1 h, followed by treatment with the indicated concentrations of 6-hydroxydopamine (6-OHDA) for 24 h. TH-positive neurons were counted and normalized to control numbers.

[6] = test system: primary DA midbrain neurons; test: Protection of primary DA midbrain neurons against rotenone toxicity (TH-positive neuron count); format: cell-based, mice; conditions: 1 μM agonist 1 h, 0-100 nM rotenone 24 h, n = 4
Procedure: as §1
Mesencephalic cultures were treated with 1 μM of either one of the GPR139 agonists compound 1 ( [drawing 13] ), compound 2 ( [drawing 14] ), or compound 3 ( [drawing 15] ), or vehicle ( [drawing 16] ) for 1 h before exposing them to 0–100 nM of rotenone. […] TH-positive neurons were counted and normalized to control numbers (100%).

[7] = molecular target: T1, human GPR139 receptor (Homo sapiens, UniProt Q6DWJ6); parameters: method as in Shi et al., 2011; conditions: Ca2+ mobilization; ref Shi et al., 2011; read-out: EC50 (GPR139 agonist); cited from earlier work
T1 construct: expressed in transfected cells; host or cells: CHO-K1
T1 sequence (Q6DWJ6 1-353): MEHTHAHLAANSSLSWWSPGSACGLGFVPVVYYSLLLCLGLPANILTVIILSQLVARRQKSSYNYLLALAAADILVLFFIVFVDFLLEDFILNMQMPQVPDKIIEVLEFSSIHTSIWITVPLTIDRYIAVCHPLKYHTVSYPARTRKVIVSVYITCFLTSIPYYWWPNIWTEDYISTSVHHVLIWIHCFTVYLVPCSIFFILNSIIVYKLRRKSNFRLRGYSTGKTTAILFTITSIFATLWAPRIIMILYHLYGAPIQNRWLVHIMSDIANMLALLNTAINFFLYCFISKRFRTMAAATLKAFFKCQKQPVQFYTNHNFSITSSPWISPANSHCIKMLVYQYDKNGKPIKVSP

[8] = molecular target: DAT (Homo sapiens, UniProt Q01959); parameters: method as in Shi et al., 2011; conditions: 10 μM; ref Shi et al., 2011; cited from earlier work
Sequence of DAT (Q01959 whole entry, species assumed): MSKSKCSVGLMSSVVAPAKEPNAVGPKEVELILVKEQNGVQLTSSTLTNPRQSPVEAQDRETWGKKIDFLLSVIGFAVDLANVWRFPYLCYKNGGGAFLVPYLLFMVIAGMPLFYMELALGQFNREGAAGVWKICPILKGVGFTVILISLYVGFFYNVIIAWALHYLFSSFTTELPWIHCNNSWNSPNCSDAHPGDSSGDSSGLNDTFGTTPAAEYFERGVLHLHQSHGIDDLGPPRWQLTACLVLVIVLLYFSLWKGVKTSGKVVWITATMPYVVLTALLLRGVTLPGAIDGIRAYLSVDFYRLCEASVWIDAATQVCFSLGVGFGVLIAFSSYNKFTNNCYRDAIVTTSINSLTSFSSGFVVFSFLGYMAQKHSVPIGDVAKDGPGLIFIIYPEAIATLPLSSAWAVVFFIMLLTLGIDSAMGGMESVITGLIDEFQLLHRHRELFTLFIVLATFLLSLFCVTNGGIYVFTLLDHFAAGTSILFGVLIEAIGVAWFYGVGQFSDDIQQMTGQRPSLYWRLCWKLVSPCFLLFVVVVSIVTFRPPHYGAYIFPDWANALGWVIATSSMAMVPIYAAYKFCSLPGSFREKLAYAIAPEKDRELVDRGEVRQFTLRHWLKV

[9] = molecular target: norepinephrine transporter (Homo sapiens, UniProt P23975); parameters: method as in Shi et al., 2011; conditions: 10 μM; ref Shi et al., 2011; cited from earlier work
Sequence of norepinephrine transporter (P23975 whole entry, species assumed): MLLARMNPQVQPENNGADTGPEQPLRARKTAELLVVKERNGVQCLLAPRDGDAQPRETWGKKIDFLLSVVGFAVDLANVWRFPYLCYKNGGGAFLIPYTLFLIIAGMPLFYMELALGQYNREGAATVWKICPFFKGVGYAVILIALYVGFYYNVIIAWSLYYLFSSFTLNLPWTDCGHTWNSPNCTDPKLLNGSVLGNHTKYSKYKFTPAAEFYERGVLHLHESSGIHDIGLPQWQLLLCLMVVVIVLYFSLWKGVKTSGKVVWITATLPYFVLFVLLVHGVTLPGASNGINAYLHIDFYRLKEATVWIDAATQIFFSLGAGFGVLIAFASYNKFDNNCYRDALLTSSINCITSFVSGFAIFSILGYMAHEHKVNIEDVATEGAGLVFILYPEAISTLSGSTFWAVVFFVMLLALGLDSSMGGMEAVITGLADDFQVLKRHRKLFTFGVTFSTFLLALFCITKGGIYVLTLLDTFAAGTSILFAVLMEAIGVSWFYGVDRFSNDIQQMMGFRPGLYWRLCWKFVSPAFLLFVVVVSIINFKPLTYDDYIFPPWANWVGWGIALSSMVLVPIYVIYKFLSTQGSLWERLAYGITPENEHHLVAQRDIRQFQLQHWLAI

[10] = parameters: method as in Shi et al., 2011; conditions: ref Shi et al., 2011; cited from earlier work
[11] = molecular target: T1, human GPR139 receptor; test: GPR139 calcium mobilization assay (CHO-K1 cells stably expressing the receptor); format: cell-based; conditions: inhibition of agonist-induced stimulation (compound 1 at EC85); read-out: IC50 (GPR139 antagonist)
Procedure: EC50 and IC50 for all compounds were determined as described (Shi et al., [2011]).
All compounds were further characterized using GPR139-based Ca^2+ mobilization assays (Figure 5).
Figure 5 Additional characterization of GPR139 compounds using kinetic fluorescence measurements and concentration-response determination in calcium mobilization assays. (A–D) Examples for the kinetic of relative fluorescence units (RFU) for compound 1 and 4 and related controls, involving a two-step addition protocol. (A) Cellular fluorescence response to addition of buffer (approximately at time 0:00 min) and a second addition of buffer at 3:20 min. (B) Cellular fluorescence response to addition of the Ca^2+ ionophore and reference compound for complete release of Ca^2+ from intracellular stores, ionomycin. (C) Cellular response to addition of 10 μM compound 1 at time 0:00. (D) Cellular fluorescence in response to antagonist compound 4 (at 0:00, 50 μM) and addition of agonist compound 1 at EC85 concentration. […]
Standard molecular cloning techniques were used to generate Chinese hamster ovary (CHO-K1) cells stably expressing the human GPR139 receptor. […] Calcium flux was measured using a Hamamatsu FDSS7000 imaging-based plate reader (Hamamatsu Photonics) using 480 nm excitation light and emitted fluorescent light passed through a 525 nm emission filter and detected by a CCD camera. […]

NCCc1cc(O)c(O)cc1O [6-OHDA, 6-hydroxydopamine]
concentration giving 50% cell death [1]: 100 µM

COc1ccc(CCc2cc(OC)c(O)c(OC)c2)cc1OC [Chrysotoxine]
antagonism of MPP+ toxicity [2]: could antagonize | antagonism of rotenone toxicity [2]: not rotenone

C[n+]1ccc(-c2ccccc2)cc1 [MPP^+, 1-methyl-4-phenylpyridinium]
average DA neuronal cell death ([3]; 1 μM MPP+): 40% | concentration giving 50% cell death [1]: 5000 µM

COc1cc(OC)cc(C(=O)NNC(=O)Nc2cccc3ccccc23)c1 [compound 1, 2-(3,5-Dimethoxybenzoyl)-N-(1-naphthyl)-hydrazinecarboxamide]
protection against MPP+ toxicity ([4]; 1 μM agonist 1 h, 1 μM MPP+ 24 h, p ≤ 0.05 vs vehicle): significant | protection against 6-OHDA toxicity [5]: do not protect | protection against rotenone toxicity [6]: do not protect | EC50 [7]: 0.039 µM | inhibition of binding to the DAT [8]: 4% | inhibition of binding to the norepinephrine transporter [9]: −8% | ADME properties for in vivo testing [10]: does not hold the ADME properties necessary for in vivo testing

Cc1c(CC(Cl)(Cl)Cl)c2c(n1-c1ccc(F)cc1)CCCC2=O [compound 4, 1-(4-Fluoro-phenyl)-2-methyl-3-(2,2,2-trichloro-ethyl)-1,5,6,7-tetrahydro-indol-4-one, reference compound]
IC50 [11]: 7.4 µM and 3 µM | effect of antagonist on protection by the agonists against MPP+ ([4]; 10 μM antagonist co-applied with agonist, 1 μM MPP+): blocked the protective effect | effect of antagonist alone on DA cell survival ([4]; 10 μM antagonist, no MPP+): did not have an effect

C=C(C)[C@H]1Cc2c(ccc3c2O[C@@H]2COc4cc(OC)c(OC)cc4[C@@H]2C3=O)O1 [rotenone]
average DA neuronal cell death ([3]; 100 nM rotenone): 60% | concentration giving 50% cell death [1]: 0.005 µM
